Where two headings read alike, the source gives them in different places.
Columns and labels:
PKA Cα [1] = assay: PKA Cα translocation in NG108-15/D2 cells (immunocytochemistry, cell fractionation/western)
δ-PKC [2] = assay: Translocation of δ-PKC in NG108-15 and CHO cells expressing the applicable receptor; type: cell-based
Source text: (§1) To determine whether addictive drugs other than ethanol would cause translocation of some proteins, we examine the effects of various receptor agonists and antagonists on ε-PKC δ-PKC or PKA Cα translocation in NG108-15 and CHO cells expressing the applicable receptor. […] Adenosine is also implicated in some behavioral effects of ethanol.
(§2) The mechanisms underlying ethanol- and dopamine-mediated translocation of ε-PKC and δ-PKC were studied by altering the activity of various molecules that might be in the pathways leading to translocation.

CREB phosphorylation = CREB phosphorylation measured with antibody specific for phosphorylated CREB; type: cell-based
PKA Cα [3] = type: cell-based
Source text: as §1

PKA Cα [4] = assay: PKA Cα translocation in primary cultures of hippocampal neurons
[5] = test system: CRE-mediated gene expression; assay: CRE-luciferase reporter assay in NG108-15/D2 cells
Experimental: Cells were transiently transfected with a CRE-luciferase reporter construct to measure gene expression via endogenous CRE-binding protein (CREB).
NG108-15/D2 cells were plated at 1×10^6 cells/100 mm plate, grown in defined medium for 3 days, and then transfected with 10 μg of CRE-luciferase construct using the LipofectAMINE reagent (GIBCOL) as recommended by the manufacturer. Cells were cultured for 24 h post transfection before being seeded into 12-well plates. […] Cells were then washed with PBS and cultured for a total of 5 h. Cell extracts were prepared and luciferase activity measured with a luciferase assay system (Promega, Madison, Wis.), using a Rosys Anthos Lucy2 microplate luminometer (Anthos Labtec Instruments, Austria). Results are expressed as percent increase over control. Data represent three or more separate experiments from triplet wells. Luciferase activities were normalized for transfection efficiency determined in cells transfected in parallel with pCMVβgalactosidase. β-galactosidase activity was measured using a kit from Strategene (La Jolla, Calif.).

ε-PKC [6] = assay: Translocation of ε-PKC in NG108-15 and CHO cells expressing the applicable receptor; type: cell-based
Source text: as §1, §2

GFP-Cα = type: cell-based
[7] = test system: CREB (GAL4-CREB fusion, luciferase reporter); assay: GAL4-CREB / GAL4-luciferase reporter in NG108-15 cells; type: cell-based; settings: ethanol exposure
Experimental: Cells are cultured as described in Dohrman et al., Proc Natl Acad Sci USA (1996) 93:10217-10221, and are transfected using Effectene (Qiagene) as described by the manufacturers. […] Luciferase activity is measured using Luciferase Assay System (Promega) and normalized to β-galactosidase activity.
NG108-15 cells are co-transfected with a GAL4-CREB fusion construct and with a second construct containing the DNA binding site of GAL4 fused to luciferase as a reporter gene. […] The ethanol-induced increase in luciferase activity induced was inhibited by Rp-cAMPS but not by the CaMK and PKC inhibitors KN-62 and GF, respectively (FIGS. 15 and 16B).

ε-PKC [8] = type: cell-based; settings: NG108-15 cells; for ε-PKC (% cells) Cytoplasmic staining / ε-PKC (% cells) Perinuclear staining: EtOH exposure, n = 5; for ε-PKC (% cells) Cytoplasmic staining: control 5 ± 2; for ε-PKC (% cells) Perinuclear staining: control 95 ± 2
Experimental: (§3) Naive NG108-15 cells were, therefore, incubated in for ten (10) min. in 100 nM PMA, to then determine localization of δ-PKC and ε-PKC.

δ-PKC [9] = type: cell-based; settings: NG108-15 cells
Experimental: as §3

PKCδ-GFP = settings: +100 mM EtOH/30 min; for Subcellular Localization of PKCδ-GFP: unstimulated: Golgi Apparatus
ε-PKC [10] = type: cell-based; settings: NG 108-15 or CHO cells; Ethanol 200 mM, 30 min; no compound: Perinucleus
Experimental: NG 108-15 or CHO cells were pre-incubated in the presence or absence of the indicated inhibitor for 30 min. (except for GF which was pre-incubated for 1 hour), then further incubated in the absence or presence of 200 mM ethanol for 30 min.

[11] = test system: Ethanol-indicative proteins in lymphocytes; settings: Lymphocyte; ethanol-exposed; EUC origin Cytoplasm
Source text: (§4) The particular protein and cellular subregion(s) selected for examination can vary depending on the cell type to be used in a particular method. Cells used in the methods of the invention are of a cell type in which the selected protein is predominantly present in a different amount in a particular cellular subregion of ethanol-exposed cells compared to ethanol-unexposed cells. […] One of skill in the art can readily determine the intracellular distribution of other ethanol indicative proteins by staining ethanol-exposed and ethanol-unexposed cells of various cell types with stains (e.g., antibodies) specific for such proteins.

[12] = test system: Ethanol-indicative proteins in CHO cells
Source text: as §4

[13] = test system: Ethanol-indicative proteins in NG108 cells; settings: ethanol 10 minutes or 12-48 hours
Source text: as §4

[14] = test system: Ethanol-indicative proteins in Purkinje cells; settings: Purkinje cells in brain section; ethanol 72 hr exposure; EUC origin Cytoplasm
Source text: as §4

GFP-RIIβ = settings: +100 mM EtOH 30 min, unstimulated: Golgi Apparatus
[15] = test system: CRE-regulated luciferase expression; assay: CRE-luciferase reporter in NG108-15 cells; type: cell-based; settings: NG108-15 cells; for increase in luciferase activity above control: 200 mM ethanol
Experimental: Luciferase is used as a reporter gene in a transient expression system to identify substances that alter the effects of ethanol on CRE-regulated gene expression. Cells are cultured as described in Dohrman et al., Proc Natl Acad Sci USA (1996) 93:10217-10221, and are transfected using Effectene (Qiagene) as described by the manufacturers. Twenty-four hours after transfection the cells are treated with 200 mM ethanol for 30 min. to 36 hr. Luciferase activity is measured using Luciferase Assay System (Promega) and normalized to β-galactosidase activity.
(§5) NG108-15 cells were co-transfected with a fusion construct containing the cAMP response element (CRE) fused to luciferase as a reporter gene (Stratagene).
Since the ERK/MAPK pathway may regulate CREB phosphorylation and CRE-mediated gene expression, NG108-15 cells having the luciferase construct were co-incubated with 200 mM ethanol and a MEK inhibitor (PD98059 (2 nM, Calbiochem, San Diego, Calif.) or U0126 (1 μM, Calbiochem, San Diego, Calif.)) or a dominant negative MEK construct (DN-MEK, Dr. R. Seger) in which Lys-97 was replaced by alanine.
as §5

[16] = ethanol 10′ exposure, EUC origin Perinucleus

CCCN1CCc2cccc3c2[C@H]1Cc1ccc(O)c(O)c1-3 [NPA, R(−)-10,11-dihydroxy-N-n-propylnorapomorphine]
PKA Cα in subcellular fractions (Western blot) (PKA Cα [1]): translocation of PKA Cα from the membrane fraction to the nucleus and cytoplasm
PKA Cα localization after agonist or ethanol (immunostaining) (PKA Cα [1]): translocation of PKA Cα from the Golgi into the cytoplasm and nucleus
PKA Cα translocation, subthreshold NPA and ethanol together (PKA Cα [1]): striking synergistic increase
PKA translocation at subthreshold concentration, agent alone (PKA Cα [1]): did not cause PKA translocation
time at which NPA-induced PKA Cα translocation reaches a maximum (PKA Cα [1]): 10 min
Km (PKA Cα [1]; read-out: Km of NPA-induced PKA Cα translocation (function of NPA concentration)): 1.6 nM
Predominant Localization of δ-PKC (agent alone) (δ-PKC [2]): Perinucleus &
Translocation of δ PKC and δ PKC, agent alone (δ-PKC [2]): neither agent alone caused translocation
Translocation of δ PKC and δ PKC, co-incubation of NPA and ethanol (δ-PKC [2]): induced
levels of CREB phosphorylation, co-incubation of ethanol and NPA (CREB phosphorylation): synergistic interactions
Predominant Localization of PKA Cα (agent alone) (PKA Cα [3]): Nucleus &
translocation of PKA-Cα, agent alone (PKA Cα [3]): did not cause any perceptible translocation
translocation of PKA-Cα, co-incubation of ethanol and NPA (PKA Cα [3]): maximal translocation
PKA Cα localization after agonist or ethanol (PKA Cα [4]): PKA Cα translocation to the cytoplasm, neurites and nucleus
PKA Cα translocation, subthreshold NPA and ethanol together (PKA Cα [4]): Synergy of PKA Cα translocation occurs
CRE-mediated luciferase activity, subthreshold NPA and ethanol together [5]: striking synergistic increase
luciferase activity (CRE-luciferase) [5]: increases luciferase activity to the same extent as forskolin
Predominant Localization of ε-PKC (agent alone) (ε-PKC [6]): Cytoplasm
Subcellular localization of GFP-Cα (GFP-Cα): Nucleus
cells showing the stated localization of GFP-Cα (GFP-Cα): [>50% cells]

CCO [Ethanol, ethanol]
increase of expression of luciferase (GAL4-CREB / GAL4-luciferase) [7]: approximately 2 fold
ethanol-induced altered localization of ε-PKC (ε-PKC [8]; 25 mM ethanol, 4 days): also observed
ε-PKC (% cells) Cytoplasmic staining (ε-PKC [8]; listed as EtOH): 94 ± 2 % cells
ε-PKC (% cells) Cytoplasmic staining (ε-PKC [8]; listed as ethanol): more than 90 % cells
ε-PKC (% cells) Perinuclear staining (ε-PKC [8]; listed as EtOH): 94 ± 3 % cells
ε-PKC (% cells) Perinuclear staining (ε-PKC [8]; listed as ethanol): more than 90 % cells
ethanol-induced altered localization of δ-PKC (δ-PKC [9]; 25 mM ethanol, 4 days): also observed
δ-PKC (% cells) Golgi Staining (δ-PKC [9]; 200 mM EtOH 48 hours, n = 5, control 74 ± 7): 2 ± 2 % cells
localization of δ-PKC (δ-PKC [9]; 200 mM EtOH, 48 hours): localized to the perinucleus and nucleus and absent from the Golgi
Predominant Localization of δ-PKC (agent alone) (δ-PKC [2]; 200 mM Ethanol or 50 nM NPA, None: Golgi): Perinucleus &
Translocation of δ PKC and δ PKC, agent alone (δ-PKC [2]; D2-receptor-expressing NG108-15 and CHO cells, 10^−9 M NPA or 25 mM ethanol alone): neither agent alone caused translocation
Subcellular Localization of PKCδ-GFP (PKCδ-GFP; 1° Glia): Golgi Apparatus
cells showing the stated localization of PKCδ-GFP (PKCδ-GFP; NG108-15/D2R): [>50% cells]
Subcellular Localization of PKCδ-GFP (PKCδ-GFP; NG108-15/D2R): Perinucleus/
Predominant ε-PKC Localization (ε-PKC [10]): Cytoplasm
Cellular subregion in which the protein is predominantly present, EEC (Destination): δ-PKC [11]: Cytoplasm
Cellular subregion in which the protein is predominantly present, EEC (Destination): ε-PKC [11]: Cytoplasm
Cellular subregion in which the protein is predominantly present, EEC (Destination): RACK 2 (β′COP) [12, 16]: Cytoplasm
Cellular subregion in which the protein is predominantly present, EEC (Destination): ε-PKC [12, 16]: Cytoplasm
Cellular subregion in which the protein is predominantly present, EEC (Destination): δ-PKC ([12]; ethanol 10 minutes or 12-48 hours, EUC origin Golgi): Perinucleus and nucleus
Cellular subregion in which the protein is predominantly present, EEC (Destination): RIIβ ([13]; EUC origin Golgi): Nucleus
Cellular subregion in which the protein is predominantly present, EEC (Destination): δ-PKC ([13]; EUC origin Golgi): Perinucleus and nucleus
Cellular subregion in which the protein is predominantly present, EEC (Destination): Protein Phosphatase I and IIB ([13]; EUC origin Nucleus): Cytoplasm
Cellular subregion in which the protein is predominantly present, EEC (Destination): RACK 2 (β′COP) ([13]; EUC origin Perinucleus): Cytoplasm
Cellular subregion in which the protein is predominantly present, EEC (Destination): ε-PKC ([13]; EUC origin Perinucleus): Cytoplasm
Cellular subregion in which the protein is predominantly present, EEC (Destination): ε-PKC [14]: Not detectable
Subcellular Localization of GFP-RIIβ (GFP-RIIβ; 1° Glia): Golgi Apparatus
Subcellular Localization of GFP-RIIβ (GFP-RIIβ; 1° Neurons): Golgi Apparatus
Subcellular Localization of GFP-RIIβ (GFP-RIIβ; NG108-15/D2R): Golgi Apparatus
Predominant Localization of ε-PKC (agent alone) (ε-PKC [6]; NG108-15 cells expressing the applicable receptor, 200 mM Ethanol, 50 nM NPA, 1 μM D-ala-D-leu-enkephalin, 2 μM R(+) methanindamide, 20 μM Carbachol, 10^−5 M UK14304, 20 nM CCPA, 100 nM CGS-21680 HCl, None: Perinucleus): Cytoplasm
increase in luciferase activity ([15]; 50 mM ethanol, 14-hour exposure): about 25%
increase in luciferase activity above control ([15]; 4 hour exposure): 29±6%
increase in luciferase activity above control ([15]; 14 hours of exposure): 79±4%
increase of expression of luciferase (CRE-luciferase) ([15]; ethanol exposure): more than 2 fold
Subcellular localization of GFP-Cα (GFP-Cα; 1° Glia (rat hippocampus culture), +100 mM EtOH/30 min or 50 nM NPA/30 min, unstimulated: Golgi Apparatus): Nucleus
cells showing the stated localization of GFP-Cα (GFP-Cα; 1° Glia, +100 mM EtOH/30 min or 50 nM NPA/30 min): [<20% cells]
Subcellular localization of GFP-Cα (GFP-Cα; 1° Neurons (rat hippocampus culture), +100 mM EtOH/30 min, unstimulated: Golgi Apparatus): Nucleus
cells showing the stated localization of GFP-Cα (GFP-Cα; 1° Neurons, +100 mM EtOH/30 min): [>50% cells]
cells showing the stated localization of GFP-Cα (GFP-Cα; NG108-15/D2R, +100 mM EtOH/30 min or 50 nM NPA/30 min): [>50% cells]
Subcellular localization of GFP-Cα (GFP-Cα; NG108-15/D2R, +100 mM EtOH/30 min or 50 nM NPA/30 min, unstimulated: Golgi Apparatus): Nucleus
